Source: patent US20170014472A1, “ATTENUATION OF INTRAPULMONARY INFLAMMATION” (APEPTICO FORSCHUNG UND E[…], priority 2014, published 2017)
Where “and” joins values, the source holds several entries; their conditions need not be identical. Equal entries are not always repeated. Where two headings read alike, the source gives them in different places.

Experiments:
Assay type in all cases: in vivo, pig
[1] = tested on: porcine model of lipopolysaccharide (LPS)-induced sepsis; settings: for CO (cardiac output) / CVP (central venous pressure) / EVLW (extravascular lung water content) / MAP (mean arterial pressure) / MPAP (mean pulmonary arterial pressure) / NA (noradrenaline dosage required for hemodynamic stability) / PaCO2 (arterial partial pressure of carbon dioxide) / Pendinsp (end-inspiratory pressure) / RR (respiratory rate): median
Method: Following animal care committee approval (Landesuntersuchungsamt Rheinland-Pfalz, Koblenz, Germany; approval number 23 177-07/G12-1-058) 18 juvenile pigs (weight 25-27 kg) were examined in a randomized, investigator-blinded setting.
After sedation with intramuscular injection of ketamine (8 mg kg^−1) and midazolam (0.2 mg kg^−1) and preparation of vascular access, anesthesia was induced and maintained by intravenous propofol and fentanyl administration (8-12 mg kg^−1 h^−1/0.1-0.2 mg h^−1). A single dose of atracurium (0.5 mg kg^−1) was applied to facilitate orotracheal intubation. Ventilation (Respirator: AVEA®, CareFusion, USA) was started in pressure-controlled mode with a tidal volume of (Vt) of 8 mL kg^−1, positive end-expiratory pressure (PEEP) of 5 cmH2O, FiO2 of 0.3-0.4 and a variable respiratory rate to maintain normocapnia. A balanced saline solution (Sterofundin iso, B. Braun, Germany) was continuously infused at a rate of 10 mL kg^−1h^−1. Vascular catheters were placed ultrasound-guided in Seldinger's technique and under sterile conditions: an arterial line, a pulse contour cardiac output catheter (PiCCO, Pulsion Medical Systems, Germany) and central venous line were inserted via femoral vein access. A 7.5-French introducer for a pulmonary artery catheter was placed via the right internal jugular vein. Ventilatory and extended hemodynamic parameters were recorded continuously (Datex S/5, GE Healthcare, Germany). Body temperature was measured by a rectal probe and normothermia was maintained by body surface warming
(§1) Following instrumentation baseline parameters were assessed at healthy state. FIG. 1 summarizes the experimental protocol: systemic inflammation was induced by continuous LPS infusion (Escherichia coli serotype O111:B4, Sigma-Aldrich, Switzerland) for one hour at 100 μg kg^−1 h^−1, followed by 10 μg kg^−1h^−1 for the entire experiment. Initial high-dose infusion was combined with a non-protective ventilation setting (Vt 25 mL kg^−1, zero PEEP, FiO2 1.0) to add a VILI component. Afterwards the ventilation mode was switched to a more lung protective setting: Vt of 8 mL kg^−1, PEEP 5 cm H2O, FiO2 of 0.4-0.5, and a variable respiratory rate to maintain a pH>7.2. The animals were monitored over six hours after sepsis induction. During the induction phase a non-participant randomized the animals into two groups and prepared the peptide solution as previously described (Hartmann E K et al, Acta anaesthesiologica Scandinavica 2013, 57(3):334-341) for blinded endotracheal inhalation.
(§2) Group (1) animals, to which 1 mg kg^−1 of a compound of formula I of the amino acid sequence SEQ ID NO:5 was administered at zero and three hours;
To maintain hemodynamic stability (mean arterial pressure >60 mmHg) additional fluid boli were administered (150 ml of balanced saline or hydroxyethyl starch once every hour). Persisting instability was treated by continuous central venous noradrenaline infusion. At the end of the experiments the animals were killed in deep general anesthesia by intravenous injection of propofol (200 mg) and potassium chloride (40 mval).
(§3) Data are expressed as median and interquartile range (IQR) respectively box-plots. Intergroup comparisons were tested with the Mann-Whitney-U-Test. If multiple testing was performed, P values were adjusted by the Bonferroni correction. Intragroup time courses of repetitively measured parameters were analyzed by Friedman ANOVA on ranks and post-hoc Student-Newman-Keuls-Test. P values below 0.05 were regarded as significant. Physiological data (ventilator and hemodynamic data) as set out in Table 1 were analyzed in explorative manner only. The statistical software SigmaPlot 11.0 (Systat Inc., USA) was used.

[2] = tested on: intrapulmonary mRNA of IL-1β, IL-6, TNF-α, COX-2, iNOS, amphiregulin, tenascin-c; experiment: Intrapulmonary mRNA quantification (real-time PCR, normalized to PPIA) in lung tissue of LPS-septic pigs
Method: as §1, §2
To determine intrapulmonary inflammation mRNA levels of pro-inflammatory cytokines interleukin-1β (IL-1β), interleukin-6 (IL-6), TNF-α, and enzymes prostaglandin G/H synthase-2 (COX-2) and inducible nitric oxide synthase (iNOS) were quantified. Amphiregulin and tenascin-c expression levels were examined as surrogates of mechanical stress and remodeling. Four representative samples from the left lung (upper/lower lobe, each dependent/non-dependent) were collected, snap frozen in liquid nitrogen and stored at −80° C. RNA extraction and quantification procedure by real-time polymerase chain reaction (Lightcycler 480 PCR System, Roche Applied Science, Germany) was conducted as previously described in detail.[17-19] mRNA expression data were normalized against peptidylprolyl isomerase A (PPIA) as control gene.
as §3

[3] = tested on: plasma IL-6 and TNF-α; experiment: Plasma levels of IL-6 and TNF-α by ELISA in LPS-septic pigs; settings: vs CTRL; repetitive inhalation; compared with the effect on pulmonary expression
Method: as §1, with “During the induction phase a non-participant randomized the animals into two groups and prepared the peptide solution as previously described (Hartmann E K et al, Acta anaesthesiologica Scandinavica 2013, 57(3):334-341) for blinded endotracheal inhalation.” left out
Blood gas values were obtained using a Rapidlab 248 device (Bayer Healthcare, Germany) Hematological parameters were sampled during baseline, sepsis induction and after three and six hours. Lactate plasma levels, leucocyte and platelet counts were analyzed by the Institute of Laboratory Medicine, Medical Center of the Johannes Gutenberg-University. The plasma levels of IL-6 and TNF-α were determined by quantifying enzyme linked immunosorbent assays according to the manufacturer's instructions (Porcine IL-6 Quantikine ELISA, Porcine TNF-α Quantikine ELISA, R&D Systems, Germany).

[4] = tested on: LPS-induced lung injury; experiment: Post-mortem macroscopic and histopathological lung injury scoring and lung wet to dry ratio in LPS-septic pigs; settings: for hemorrhage, histopathological score / alveolar edema, histopathological score / epithelial destruction, histopathological score / inflammatory infiltration, histopathological score / interstitial edema, histopathological score / microatelectasis, histopathological score / overdistension, histopathological score: post-mortem at 6 h, median (IQR); for hemorrhage, histopathological score: 0 to 5 points, CTRL higher, P<0.05 vs. Group (1); for alveolar edema, histopathological score / epithelial destruction, histopathological score / inflammatory infiltration, histopathological score / interstitial edema, histopathological score / microatelectasis, histopathological score / overdistension, histopathological score: severity 0 to 5 points
Method: as §1, §2
The lungs were removed en-bloc after thoracotomy. A macroscopic lung injury score was assessed as previously described in detail (Lim C M et al, Lung 2003, 181(1):23-34). Four ventral and dorsal segments (each upper/lower right, upper/lower left) of the lung surface were examined for hemorrhage and congestion (2 points>50%, 1 point for<50%, 0 points for no or minimal changes). The right lung was fixed in 10% buffered formalin. Representative tissue samples were paraffin embedded and cut for hematoxylin and eosin staining A blinded investigator under supervision of a senior pathologist performed the histopathological assessment. In different lung regions (non-dependent periphery and bronchial, dependent periphery and bronchial) morphological changes were rated for seven criteria (alveolar edema, interstitial edema, hemorrhage, inflammatory infiltration, epithelial damage, microatelectasis and overdistension). The severity of each parameter ranged from 0 (no occurrence) to 5 points (complete field). For every lung region we used the mean value of four non-overlapping microscopy fields. The sum of the regional scores in all lung regions adds to a maximum injury score of 140 points (7 parameters×5 maximum points per parameter from 4 lung regions). Additionally the regional distribution of each parameter was assessed in the dependent versus non-dependent lung regions. Similar scoring procedures were described previously (Spieth P M et al, Intensive Care Med 2007, 33(2):308-314; Wang H M et al, Eur Surg Res 2010, 45(3-4):121-133).The left lung was weighted immediately after removal and dried afterwards at 60° C. for 72 hours to determine the dry weight and wet to dry ratio (W/D).
as §3

[5] = 3 h, 1 mg kg^−1 inhaled at zero and three hours
[6] = 6 h, 1 mg kg^−1 inhaled at zero and three hours
[7] = Baseline, before LPS and inhalation
[8] = Sepsis/VILI induction, before first inhalation
[9] = vs CTRL, lung tissue at 6 h, 1 mg kg^−1 inhaled at zero and three hours

Cyclo(4-aminobutanoic acid-GQRETPEGAEAKPWYD) (XGQRETPEGAEAKPWYD; cyclized via N-terminal 4-aminobutanoic acid to Asp side chain; cyclized compound for use in inflammation) [SEQ ID NO:5, amide bond between amino group of N-terminal 4-aminobutanoic acid and β-carboxyl side chain of C-terminal aspartic acid]
CO (cardiac output) [1, 5]: 3.2 L/min
CVP (central venous pressure) [1, 5]: 11 mmHg
EVLW (extravascular lung water content) [1, 5]: 12 mL/kg
MAP (mean arterial pressure) [1, 5]: 61 mmHg
MPAP (mean pulmonary arterial pressure) [1, 5]: 33 mmHg
NA (noradrenaline dosage required for hemodynamic stability) [1, 5]: 0.2 µg/kg/min
PaCO2 (arterial partial pressure of carbon dioxide) [1, 5]: 43 mmHg
Pendinsp (end-inspiratory pressure) [1, 5]: 22 cmH2O
RR (respiratory rate) [1, 5]: 34 min⁻¹
CO (cardiac output) [1, 6]: 3.7 L/min
CVP (central venous pressure) [1, 6]: 13 mmHg
EVLW (extravascular lung water content) [1, 6]: 13 mL/kg
MAP (mean arterial pressure) [1, 6]: 66 mmHg
MPAP (mean pulmonary arterial pressure) [1, 6]: 30 mmHg
NA (noradrenaline dosage required for hemodynamic stability) [1, 6]: 0.8 µg/kg/min
PaCO2 (arterial partial pressure of carbon dioxide) [1, 6]: 43 mmHg
Pendinsp (end-inspiratory pressure) [1, 6]: 19 cmH2O
RR (respiratory rate) [1, 6]: 32 min⁻¹
CO (cardiac output) [1, 7]: 4.5 L/min
CVP (central venous pressure) [1, 7]: 11 mmHg
EVLW (extravascular lung water content) [1, 7]: 10 mL/kg
MAP (mean arterial pressure) [1, 7]: 90 mmHg
MPAP (mean pulmonary arterial pressure) [1, 7]: 22 mmHg
NA (noradrenaline dosage required for hemodynamic stability) [1, 7]: 0 µg/kg/min
PaCO2 (arterial partial pressure of carbon dioxide) [1, 7]: 45 mmHg
RR (respiratory rate) [1, 7]: 29 min⁻¹
Pendinsp (end-inspiratory pressure) ([1]; Baseline, healthy state before LPS and inhalation): 14 cmH2O
CO (cardiac output) [1, 8]: 4.5 L/min
CVP (central venous pressure) [1, 8]: 10 mmHg
EVLW (extravascular lung water content) [1, 8]: 11 mL/kg
MAP (mean arterial pressure) [1, 8]: 100 mmHg
MPAP (mean pulmonary arterial pressure) [1, 8]: 23 mmHg
NA (noradrenaline dosage required for hemodynamic stability) [1, 8]: 0 µg/kg/min
PaCO2 (arterial partial pressure of carbon dioxide) [1, 8]: 35 mmHg
Pendinsp (end-inspiratory pressure) [1, 8]: 22 cmH2O
RR (respiratory rate) [1, 8]: 9 min⁻¹
Raw (airway resistance) ([1]; pig, in vivo): 10 cmH2O L^−1s^−1 and 12 cmH2O L^−1s^−1 and 11 cmH2O L^−1s^−1
intrapulmonary inflammatory response ([2]; at 6 hours post insult, peptide inhalation, LPS-induced lung injury in pigs): significantly reduced
intrapulmonary overall mRNA expression of COX-2 ([2]; vs CTRL, p=0.003, lung tissue at 6 h, 1 mg kg^−1 inhaled at zero and three hours): significantly lower
intrapulmonary tenascin-c expression ([2]; vs CTRL, p=0.015, lung tissue at 6 h, 1 mg kg^−1 inhaled at zero and three hours): decreased
intrapulmonary overall mRNA expression of TNF-α ([2]; vs CTRL, p=0.041, lung tissue at 6 h, 1 mg kg^−1 inhaled at zero and three hours): significantly lower
intrapulmonary overall mRNA expression of IL-6 ([2]; vs CTRL, p=0.043, lung tissue at 6 h, 1 mg kg^−1 inhaled at zero and three hours): significantly lower
intrapulmonary mRNA expression of IL-1β [2, 9]: less differences
intrapulmonary mRNA expression of iNOS [2, 9]: less differences
plasma level of IL-6 [3]: less affected
plasma level of TNF-α [3]: less affected
hemorrhage, histopathological score ([4]; dependent lung regions): 0.1 (0.8)
alveolar edema, histopathological score ([4]; dependent lung regions): 0 (0.1)
epithelial destruction, histopathological score ([4]; dependent lung regions): 0 (0)
inflammatory infiltration, histopathological score ([4]; dependent lung regions): 3.4 (1.6)
interstitial edema, histopathological score ([4]; dependent lung regions): 1.3 (0;8)
microatelectasis, histopathological score ([4]; dependent lung regions): 3.8 (2.4)
overdistension, histopathological score ([4]; dependent lung regions): 3.5 (1.7)
pulmonary wet to dry ratio (W/D) ([4]; left lung, vs CTRL Group (2), trend): higher
hemorrhage, histopathological score ([4]; non-dependent lung regions): 0 (0)
alveolar edema, histopathological score ([4]; non-dependent lung regions): 0 (0)
epithelial destruction, histopathological score ([4]; non-dependent lung regions): 0 (0)
inflammatory infiltration, histopathological score ([4]; non-dependent lung regions): 3.8 (1.4)
interstitial edema, histopathological score ([4]; non-dependent lung regions): 0.9 (1.1)
microatelectasis, histopathological score ([4]; non-dependent lung regions): 3.8 (1.4)
overdistension, histopathological score ([4]; non-dependent lung regions): 4.1 (0.9)
post-mortem macroscopic and histologic lung injury ([4]; vs CTRL Group (2), sustained lung injury in both groups): trend towards a less pronounced damage
